Read-outs that look alike come from different tables or passages of the source.
Assays:
Phaedon cochleariae = Phaedon cochleariae spray test; format: in vivo; conditions: after 7 days, Chinese cabbage leaf discs
Protocol: Phaedon cochleariae—Spray Test
(§1) Solvent: 78.0 parts by weight of acetone • • 1.5 parts by weight of dimethylformamide
(§2) Emulsifier: alkylaryl polyglycol ether
(§3) To produce a suitable active ingredient formulation, 1 part by weight of active ingredient is dissolved with the specified parts by weight of solvent and made up with water containing an emulsifier concentration of 1000 ppm until the desired concentration is attained. To produce further test concentrations, the formulation is diluted with emulsifier-containing water.
Discs of Chinese cabbage leaves (Brassica pekinensis) are sprayed with an active ingredient formulation of the desired concentration and, after drying, populated with larvae of the mustard beetle (Phaedon cochleariae).
After 7 days, the efficacy in % is determined. 100% means that all the beetle larvae have been killed; 0% means that no beetle larvae have been killed.

[1] = log P by HPLC on reversed-phase column (C 18), EEC Directive 79/831 Annex V.A8; format: physicochemical; conditions: 55° C.; for LOGP_HCOOH: log P (HCOOH); for chromatographic logP: reversed-phase HPLC column (C 18)
Protocol: Temperature: 55° C. […] Called log P (HCOOH) in the table. […] Called log P (neutral) in the table.

Spodoptera frugiperda = Spodoptera frugiperda spray test; format: in vivo; conditions: after 7 days, maize leaf discs
Protocol: Spodoptera frugiperda—Spray Test
as §1, §2, §3
Leaf discs of maize (Zea mays) are sprayed with an active ingredient formulation of the desired concentration and, after drying, populated with caterpillars of the armyworm (Spodoptera frugiperda).
After 7 days, the efficacy in % is determined. 100% means that all the caterpillars have been killed; 0% means that no caterpillar has been killed.

[2] = acidic range pH 2.7, 0.1% aqueous formic acid and acetonitrile, reversed-phase column (C 18)
[3] = log P, neutral range, HPLC on reversed-phase column (C 18)
[4] = acidic range at pH 2.7, 0.1% aqueous formic acid and acetonitrile, HPLC on reversed-phase column (C 18)
[5] = log P (neutral), HPLC reversed-phase column (C 18)

| Compound | efficacy (beetle larvae killed) (Phaedon cochleariae; application rate 500 g/ha) | LOGP_HCOOH [1, 2] | LOGP_NEUTRAL [1, 3] | LOGP_HCOOH [1, 4] | other results |
| --- | --- | --- | --- | --- | --- |
| N#Cc1ccc(CNC(=O)c2cc(-c3ccc(F)cc3)cc(NC(=O)C3CC3)n2)cc1 [Example I-002] | 100% | 3.24 |  |  |  |
| O=C(NCc1ccc(Cl)nc1)c1cc(-c2ccc(Cl)cc2)cc(NC(=O)C2CC2)n1 [Example I-024] | 100% | 3.53 | 3.47 |  |  |
| N#Cc1ccc(CNC(=O)c2cc(-c3ccc(I)cc3)cc(NC(=O)C3CC3)n2)cc1 [Example I-050] | 83% | 3.87 | 3.83 |  |  |
| CC(C)C(=O)Nc1cc(-c2ccc(C(F)(F)F)cc2)cc(C(=O)NCc2c(F)cc(C#N)cc2F)n1 [Example I-069] | 83% | 4.16 | 4.05 |  |  |
| O=C(NCc1ccc([N+](=O)[O-])cc1)c1cc(-c2ccc(C(F)(F)F)cc2)cc(NC(=O)C2CC2)n1 [Example I-084] | 100% | 3.98 | 3.85 |  |  |
| N#Cc1ccc(CNC(=O)c2cc(-c3ccc(S(=O)(=O)C(F)(F)F)cc3)cc(NC(=O)C3CC3)n2)cn1 [Example I-097] | 100% | 3.24 | 3.11 |  |  |
| N#Cc1ccc(CNC(=O)c2cc(-c3ccc(SC(F)F)cc3)cc(NC(=O)C3CC3)n2)cc1 [Example I-180] | 100% |  | 3.46 | 3.55 | efficacy (beetle larvae killed) (Phaedon cochleariae; application rate 100 g/ha): 100% |
| NS(=O)(=O)c1ccc(CNC(=O)c2cc(-c3ccc(OC(F)(F)F)cc3)cc(NC(=O)C3CC3)n2)cc1 [Example I-186] | 100% |  | 3.00 | 3.17 |  |
| N#Cc1ccc(CNC(=O)c2cc(-n3ccc(C(F)(F)C(F)(F)F)n3)cc(NC(=O)C3CC3)n2)cc1 [Example I-188, N-(4-Cyanobenzyl)-6-[(cyclopropylcarbonyl)amino]-4-[3-(pentafluoroethyl)-1H-pyrazol-1-yl]pyridine-2-carboxamide] |  |  | 3.57 | 3.70 | pest or weed control at 100 g/ha (Phaedon cochleariae; Phaedon cochleariae, foliar, 168 h, application rate 100 g/ha, read-out: efficacy (beetle larvae killed)): 100%; pest or weed control at 500 g/ha (Phaedon cochleariae; Phaedon cochleariae, foliar, 168 h, application rate 500 g/ha, read-out: efficacy (beetle larvae killed)): 100%; chromatographic logP ([1]; pH 2.7, LC-MS acidic range, pH 2.7, 0.1% formic acid/acetonitrile, read-out: log P (acidic) / log P (HCOOH)): 3.7; chromatographic logP ([1]; pH 7.8, LC-MS neutral range, pH 7.8, ammonium hydrogencarbonate/acetonitrile, read-out: log P (neutral)): 3.57 |
| O=C(NCc1ccc([N+](=O)[O-])cc1)c1cc(-c2ccc(C(F)(F)C(F)(F)F)c(F)c2)cc(NC(=O)C2CC2)n1 [Example I-209] |  |  | 4.33 | 4.34 | efficacy (beetle larvae killed) (Phaedon cochleariae; application rate 100 g/ha): 100% |
| N#Cc1ccc(CNC(=O)c2cc(-c3ccc(OC(F)(F)F)cc3)cc(NC(=O)C3(C#N)CC3)n2)cc1 [Example I-210] | 83% |  | 3.88 | 4.04 | efficacy (beetle larvae killed) (Phaedon cochleariae; application rate 100 g/ha): 83% |
| N#Cc1ccc(CNC(=O)c2cc(-c3ccc(C(F)F)c(F)c3)cc(NC(=O)C3CC3)n2)cc1 [Example I-222] | 100% |  | 3.34 | 3.39 | efficacy (beetle larvae killed) (Phaedon cochleariae; application rate 100 g/ha): 100% |
| N#Cc1ccc(CNC(=O)c2cc(-c3ccc(OC(F)(F)F)cc3)cc(NC(=O)c3ccc(Cl)nc3)n2)cc1 [Example I-256] |  | 4.25 |  |  | efficacy (caterpillars killed) (Spodoptera frugiperda; application rate 500 g/ha): 100%; LOGP_NEUTRAL [1, 5]: 4.20 |
| N#Cc1ccc(CNC(=O)c2cc(-c3ccc(OC(F)(F)F)cc3)cc(NC(=O)Cc3ccc(C(F)(F)F)cc3)n2)cc1 [Example I-260] |  | 4.68 |  |  | efficacy (caterpillars killed) (Spodoptera frugiperda; application rate 100 g/ha): 100%; efficacy (caterpillars killed) (Spodoptera frugiperda; application rate 500 g/ha): 100%; LOGP_NEUTRAL [1, 5]: 4.66 |
| N#Cc1ccc(CNC(=O)c2cc(-c3cc(F)c(C(F)(F)C(F)(F)F)cc3Cl)cc(NC(=O)C3CC3)n2)cc1 [Example I-269] |  | 4.34 |  |  | efficacy (caterpillars killed) (Spodoptera frugiperda; application rate 500 g/ha): 83% |
| N#Cc1ccc(CNC(=O)c2cc(-c3ccc(C(F)(F)C(F)(F)F)c(Cl)c3)cc(NC(=O)C3CC3)n2)cc1 [Example I-273] |  | 4.45 |  |  | efficacy (caterpillars killed) (Spodoptera frugiperda; application rate 500 g/ha): 100% |
